Source: publication PMC7397249, “Properly Substituted Cyclic Bis-(2-bromobenzylidene) Compounds Behaved as Dual p300/CARM1 Inhibitors and Induced Apoptosis in Cancer Cells” (Molecules, 2020)

How the values were obtained:
[1] = test system: SH-SY5Y cells; test: Cell cycle and apoptosis (sub-G1) analysis by FACS in SH-SY5Y cells; type: cell-based, human; settings: 5 μM, 30 h
Procedure: Compounds 4a–n were tested at 5 μM for 30 h in NB4 […] and U937 AML cells among hematological cancers, and in MCF-7 breast cancer and SH-SY5Y neuroblastoma cells among solid cancers, to determine their effects in cell cycle and apoptosis induction.
In the same cell lines, the induction of apoptosis has been evaluated through the percentage of the sub-G1 peaks.
(§1) For colorimetric exclusion, the cells (2 × 10^5 cells/mL) were plated in multiwells in triplicate. After stimulations at different times and concentrations, cells were diluted in the ratio 1:1 in Trypan Blue (Sigma) and counted with an optical microscope. For cell cycle analyses, cells were plated (2 × 10^5 cells/mL) and were harvested, centrifuged at 1200 rpm for 5 min and resuspended in 500 μL of a hypotonic solution containing 1× PBS, Sodium Citrate 0.1%, 0.1% NP-40, RNAase A and […] Propidium Iodide (PI). After 30 min at room temperature (RT) in the dark, samples were acquired by FACS-Calibur (BD Bioscences, San Jose, CA, USA) using CellQuest software (BD Biosciences). The percentage in different phases of the cell cycle was determined by ModFit LT V3 software (Verity). All experiments were performed in triplicate. Cell death was measured as percentage of cells in sub-G1 phase as in [30].

[2] = test system: p300; test: Western blot of acetylation marks (p300 inhibition) in MCF-7 cells; type: cell-based, human; settings: 5 μM, 30 h
Procedure: (§2) In MCF-7 cells, the levels of acetyl-H3, acetyl-H4, H3K27me3, and H3R17me2 were detected by western blot analyses as functional tests for p300 (acH3 and acH4), EZH2 (H3K27me3) and CARM1 (H3R17me2) inhibition in cells, respectively (Figure 5).
(§3) The procedures were performed as described in [30, 31]. Primary antibodies used were: Ac-H3 (Millipore, Milan, Italy); Ac-H4 (Millipore, Milan, Italy); Ac-H3K9-14 (Diagenode, Ougrée, Belgium); Ac-α-tubulin (Sigma-Aldrich), H3K27me3 (Diagenode); H3R17me2 (Diagenode); EZH2 (Abcam, Cambridge, UK). H3 (Sigma-Aldrich), H4 (Abcam), GAPDH (Sigma) and ERKs (Santa Cruz, Biotechnology, TX, USA) were used to normalize the total protein extracts (see also Supplementary Material).

[3] = test system: EZH2; test: Western blot of H3K27me3 (EZH2) in MCF-7 cells; type: cell-based, human; settings: 5 μM, 30 h
Procedure: as §2, §3

[4] = test system: EZH2; test: Western blot of H3K27me3 (EZH2 catalytic activity) in NB4 cells; type: cell-based, human; settings: 5 μM, 30 h
Procedure: (§4) Western blot analyses were carried out on NB4 and MCF-7 cells treated with a subset of compounds 4 (5 μM, 30 h), to confirm that the observed effects are due to modulation of p300, CARM1, and eventually EZH2 activities. Suberoylanilide hydroxamic acid (SAHA), a FDA-approved HDAC inhibitor [28], and GSK-126 [29], a well-known EZH2 inhibitor, were added as internal controls. In NB4 cells, the levels of acetyl-H3 (acH3) and acetyl-H4 (acH4) as well as those of acetyl-H3K9/14 (AcH3K9/14, see Supplementary material) and of the non-histone substrate acetyl-α-tubulin (Ac-Tubulin) were detected as an index of p300 inhibition (Figure 4). In the same cell line, the levels of H3K27me3, histone mark of the EZH2 catalytic activity (Figure 4), as well as the level of the EZH2 expression (see Supplementary material) have been determined. Last, the amount of H3R17me2, the functional read-out of CARM1 inhibition, was determined (Figure 4).
(§5) The procedures were performed as described in [30, 31]. Primary antibodies used were: Ac-H3 (Millipore, Milan, Italy); Ac-H4 (Millipore, Milan, Italy); Ac-H3K9-14 (Diagenode, Ougrée, Belgium); Ac-α-tubulin (Sigma-Aldrich), H3K27me3 (Diagenode); H3R17me2 (Diagenode); EZH2 (Abcam, Cambridge, UK). […]

[5] = test system: CARM1; test: Western blot of H3R17me2 (CARM1 inhibition) in NB4 cells; type: cell-based, human; settings: 5 μM, 30 h
From the text: In NB4 cells, the levels of acetyl-H3 (acH3) and acetyl-H4 (acH4) as well as those of acetyl-H3K9/14 (AcH3K9/14, see Supplementary material) and of the non-histone substrate acetyl-α-tubulin (Ac-Tubulin) were detected as an index of p300 inhibition (Figure 4). In the same cell line, the levels of H3K27me3, histone mark of the EZH2 catalytic activity (Figure 4), as well as the level of the EZH2 expression (see Supplementary material) have been determined. Last, the amount of H3R17me2, the functional read-out of CARM1 inhibition, was determined (Figure 4).
as §3

[6] = Cell viability in non-cancer mesenchymal progenitor cells (differential toxicity); type: cell-based; settings: human, MePR2B cells, control 100%, read-out: percentage of cell viability
Procedure: After treatment at 5 μM for 30 h, 4l and 4m reduced the percentage of cell viability to 61.2 ± 0.8 and 85.5 ± 3.7, respectively, in comparison with the control (100%).
as §1

[7] = test system: p300; test: Western blot of acetylation marks (p300 inhibition) in NB4 cells; type: cell-based, human; settings: 5 μM, 30 h
Procedure: as §4, §5

[8] = test system: CARM1; test: Western blot of H3R17me2 (CARM1) in MCF-7 cells; type: cell-based, human; settings: 5 μM, 30 h
Procedure: as §2, §3

SMILES | effect on cell cycle phases [1] | levels of acetyl-H4 [2] | levels of H3K27me3 [3] | levels of H3R17me2 [5] | further results
O=C1/C(=C/c2ccccc2Br)CN(CCCC(=O)c2ccccc2)C/C1=C\c1ccccc1Br [Compound 4j, 3,5-Bis((E)-2-bromobenzylidene)-1-(4-oxo-4-phenylbutyl)piperidin-4-one] | arrest in the G1/S phase | decrease of the acetylation levels | reduction of the H3K27me3 levels |  | 
O=C1/C(=C/c2ccccc2Br)CN(CC(=O)c2ccccc2)C/C1=C\c1ccccc1Br [Compound 4h, 3,5-Bis((E)-2-bromobenzylidene)-1-(2-oxo-2-phenylethyl)piperidin-4-one] | arrest in the G1/S phase |  | reduction of the H3K27me3 levels | most effective | induction of apoptosis, % sub-G1 peaks [1]: less than 20%; levels of H3K27me3 [4]: reduction of the H3K27me3 levels
O=C1/C(=C/c2ccccc2Br)CN(C(=O)C=Cc2ccccc2)C/C1=C\c1ccccc1Br [Compound 4n, 3,5-Bis((E)-2-bromobenzylidene)-1-cinnamoylpiperidin-4-one] |  | decrease of the acetylation levels | reduction of the H3K27me3 levels |  | 
O=C1/C(=C/c2ccccc2Br)CN(C(=O)Cc2ccccc2)C/C1=C\c1ccccc1Br [Compound 4l, 3,5-Bis((E)-2-bromobenzylidene)-1-(2-phenylacetyl)piperidin-4-one] | arrest in the G1/S phase | decrease of the acetylation levels |  | most effective | viability at 30 h, 5 µM [6]: 61.2 ± 0.8%
O=C1/C(=C/c2ccccc2Br)CN(CCCc2ccccc2)C/C1=C\c1ccccc1Br [Compound 4g, 3,5-Bis((E)-2-bromobenzylidene)-1-(3-phenylpropyl)piperidin-4-one] |  |  |  |  | levels of acetyl-H3 [7]: less effective
O=C1/C(=C/c2ccccc2Br)CN(CCc2ccccc2)C/C1=C\c1ccccc1Br [Compound 4f, 3,5-Bis((E)-2-bromobenzylidene)-1-phenethylpiperidin-4-one] |  |  |  |  | levels of acetyl-H3 [7]: less effective
O=C1/C(=C/c2ccccc2Br)CN(C(=O)CCc2ccccc2)C/C1=C\c1ccccc1Br [Compound 4m, 3,5-Bis((E)-2-bromobenzylidene)-1-(3-phenylpropanoyl)piperidin-4-one] | arrest in the G1/S phase |  | reduction of the H3K27me3 levels | most effective | induction of apoptosis, % sub-G1 peaks [1]: 17%; viability at 30 h, 5 µM [6]: 85.5 ± 3.7%; levels of H3K27me3 [4]: reduction of the H3K27me3 levels; levels of H3R17me2 [8]: most effective
O=C1/C(=C/c2ccccc2Br)CN(Cc2ccccc2)C/C1=C\c1ccccc1Br [Compound 4e, 1-benzyl-3,5-bis((E)-2-bromobenzylidene)piperidin-4-one] |  | decrease of the acetylation levels | reduction of the H3K27me3 levels |  | 
O=C1/C(=C/c2ccccc2Br)CN(C(=O)c2ccccc2)C/C1=C\c1ccccc1Br [Compound 4k, 1-Benzoyl-3,5-bis((E)-2-bromobenzylidene)piperidin-4-one] |  |  |  |  | levels of acetyl-α-tubulin [2]: decrease of the acetylation levels
